Measurements published in PubChem BioAssay AID1963438 (Molecular Pharmacology Branch, DTP, NCI, 2024).

Tested on: NCI-H510 multicellular tumor spheroid growth, % test/control
Test: Anticancer human tumor NCI-H510 cell line growth inhibition [Asc];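 further: spheroids exposed to agents for 7 days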;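 on viability, T/C: 100% = DMSO vehicle control wells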
Conditions: for IC50: curve of first compound; for viability, T/C: stronger effect = lower value
Outline: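 Spheroid model: tumor line + HUVEC + hMSC. Single agents and combinations; top conc. at/near clinical Cmax (10 microM if undetermined), half-log dilutions. DMSO stocks at 800-fold test concentration.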

IC50 (second compound 0.00316 µM): > 10 µM | IC50 (second compound 0.01 µM): > 10 µM | IC50 (second compound 0.0316 µM): > 10 µM | IC50 (second compound 0.1 µM): > 10 µM | IC50 (second compound 0.316 µM): > 10 µM | IC50 (second compound 1 µM): > 10 µM
SMILES: C#Cc1c(F)ccc2cc(O)cc(-c3ncc4c(N5CC6CCC(C5)N6)nc(OCC56CCCN5CC(F)C6)nc4c3F)c12 (configuration not stated) + CNC(C)C(=O)NC1CN(S(=O)(=O)c2cccc(S(=O)(=O)N3CCC4CCC(C(=O)NC(c5ccccc5)c5ccccc5)N4C(=O)C(NC(=O)C(C)NC)C3)c2)CCC2CCC(C(=O)NC(c3ccccc3)c3ccccc3)N2C1=O
viability, T/C (second compound 0.00316 µM, first compound 0.0316 µM): 97.9% | viability, T/C (second compound 0.00316 µM, first compound 0.1 µM): 101% | viability, T/C (second compound 0.00316 µM, first compound 0.316 µM): 93.2% | viability, T/C (second compound 0.00316 µM, first compound 1 µM): 87.7% | viability, T/C (second compound 0.00316 µM, first compound 3.16 µM): 102% | viability, T/C (second compound 0.00316 µM, first compound 10 µM): 104% | viability, T/C (second compound 0.01 µM, first compound 0.0316 µM): 109% | viability, T/C (second compound 0.01 µM, first compound 0.1 µM): 98.3% | viability, T/C (second compound 0.01 µM, first compound 0.316 µM): 97.1% | viability, T/C (second compound 0.01 µM, first compound 1 µM): 99.7% | viability, T/C (second compound 0.01 µM, first compound 3.16 µM): 107% | viability, T/C (second compound 0.01 µM, first compound 10 µM): 93.3% | viability, T/C (second compound 0.0316 µM, first compound 0.0316 µM): 103% | viability, T/C (second compound 0.0316 µM, first compound 0.1 µM): 97.7% | viability, T/C (second compound 0.0316 µM, first compound 0.316 µM): 96.7% | viability, T/C (second compound 0.0316 µM, first compound 1 µM): 106% | viability, T/C (second compound 0.0316 µM, first compound 3.16 µM): 114% | viability, T/C (second compound 0.0316 µM, first compound 10 µM): 90.8% | viability, T/C (second compound 0.1 µM, first compound 0.0316 µM): 112% | viability, T/C (second compound 0.1 µM, first compound 0.1 µM): 103% | viability, T/C (second compound 0.1 µM, first compound 0.316 µM): 97.8% | viability, T/C (second compound 0.1 µM, first compound 1 µM): 97.8% | viability, T/C (second compound 0.1 µM, first compound 3.16 µM): 112% | viability, T/C (second compound 0.1 µM, first compound 10 µM): 96.6% | viability, T/C (second compound 0.316 µM, first compound 0.0316 µM): 114% | viability, T/C (second compound 0.316 µM, first compound 0.1 µM): 101% | viability, T/C (second compound 0.316 µM, first compound 0.316 µM): 104% | viability, T/C (second compound 0.316 µM, first compound 1 µM): 104% | viability, T/C (second compound 0.316 µM, first compound 3.16 µM): 97.7% | viability, T/C (second compound 0.316 µM, first compound 10 µM): 114% | viability, T/C (second compound 1 µM, first compound 0.0316 µM): 120% | viability, T/C (second compound 1 µM, first compound 0.1 µM): 107% | viability, T/C (second compound 1 µM, first compound 0.316 µM): 108% | viability, T/C (second compound 1 µM, first compound 1 µM): 95.7% | viability, T/C (second compound 1 µM, first compound 3.16 µM): 104% | viability, T/C (second compound 1 µM, first compound 10 µM): 114%
